Experimental data reported in patent publication US6355426B2, “Methods for the characterization and selection of RNA target motifs that bind compounds of pharmaceutical use” (priority 1996, dated 2002).

Tests used:
[1] = system: E. coli strains DH5a and JM109; test: Growth of pGEMR / pGEMR294 transformants on plates with varying concentrations of spectinomycin; assay type: cell-based; details: 37° C.
Procedure: E. coli strains DH5a and JM109 were conventionally transformed with pGP1-2, and were subsequently transformed by pGEMR (control) and pGEMR294 (which contains the 16S sequence) as described above in Example 1D. Transformants were selected on LB agar containing ampicillin (200 ug/mL) and kanamycin ([…]). These transformants were subsequently examined for their ability to grow in the presence of varying concentrations of spectinomycin (5, 10, 15, 20 and 40 ug/mL). Spectinomycin resistant transformants were recovered at 37° C.
By contrast, transformants of pGEMR294 grew in the presence of the drug up to […]. Plasmids isolated from the transformants and used to retransform each strain, confirmed that resistance was indeed plasmid dependent.

[2] = system: E. coli strain DC2; test: Selection of spectinomycin-resistant transformants from a random rRNA fragment library; assay type: cell-based
Description: Random rDNA fragments were generated by restriction endonuclease digestion of the entire rrnB operon encoding all three rDNAs (16S, 23S and 5S) and the spacer regions using a range and combination of one or more enzymes (including either AluI, HaeIII or DpnI or a double digestion with AluI/DpnI or HaeIII/DpnI) in which recognition sites occurred frequently within the target sequence. The enzymes AluI, HaeIII and DpnI release fragments that can be cloned in either orientation in to the SmaI site on pGEMR.
The fragments were ligated into the SmaI site in pGEMR and used to transform the respective strains. The diversity of RNA fragments within the library was determined by in vitro transcription of radiolabeled transcripts using the RIBOMAXÔ system (Promega), resolution by denaturing gel electrophoresis, and autoradiography according to standard procedures [Sambrook et al, cited above]. Briefly described, to establish that the pool of transformants harbored pGEMR encoding a mixed population of rRNA fragments, the plasmids were isolated, linearized with HindIII and transcribed in vitro with T7 RNA polymerase in the presence of ^32PaUTP. The products were resolved by denaturing gel electrophoresis and visualized by autoradiography. The library consisted of a large number of transcripts, varying in size with an average of 200-500 nucleotides in length. […]

[3] = system: 30S subunits and 3' domain 16S rRNA sub-particle; details: 30S subunits and reconstituted 3' domain particle (nucleotides 923-1542 with eight r-proteins); cited from earlier work

Structure (SMILES): CN[C@@H]1[C@H](O)[C@H](NC)[C@H]2O[C@@]3(O)C(=O)C[C@@H](C)O[C@H]3O[C@@H]2[C@H]1O [spectinomycin]
- spectinomycin concentration up to which transformants grew ([1]; transformants of pGEMR294 (16S rRNA fragment nucleotides 972-1266, helix 34) with pGP1-2): up to 20 mg/mL
- spectinomycin concentration above which transformants did not survive on plates ([1]; transformants of pGEMR (control) with pGP1-2): above 5 mg/mL
- spectinomycin concentration up to which resistant transformants developed on plates ([2]; DC2 (pGP1-2) transformed with rRNA fragment library (16S/23S hybrid fragment), after 48 hours incubation at 37° C.): up to 40 ug/mL
- level of spectinomycin resistance, transformants expressing 16/23S RNA versus wild type helix 34 fragment ([2]; comparison of transformants expressing 16/23S hybrid RNA with those encoding wild type helix 34 fragment): higher level of spectinomycin resistance
- binding affinity to 30S subunit versus 3' domain sub-particle (dependence of protection on drug concentration) [3]: binds with similar affinity to each particle
